Among the data in US5583218A, “Carbapenem derivatives” (Daiichi Pharmaceutical Co., Ltd., priority 1988, dated 1996) are MIC and antibacterial activity values, retold here.

For one assay, the system named is E. coli NIHJ. Briefly: Minimum inhibitory concentration against E. coli NIHJ. It counts as cell-based. The conditions noted are these: Escherichia coli.
The subject of the next assay is Ent. cloacae 03400. In words: Minimum inhibitory concentration against Ent. cloacae 03400. The assay is classed as cell-based. The conditions noted are these: Enterobacter cloacae.
The subject of the next assay is Ser. marcescens 10104. In words: Minimum inhibitory concentration against Ser. marcescens 10104. The assay is classed as cell-based, Serratia marcescens.
The subject of a further assay is Ps. aeruginosa 32233. In words: Minimum inhibitory concentration against Ps. aeruginosa 32233. It counts as cell-based. The conditions noted are these: Pseudomonas aeruginosa.
The test system of another assay is S. aureus 209P. In words: Minimum inhibitory concentration against S. aureus 209P. It counts as cell-based. Conditions: Staphylococcus aureus.
The test system of another assay is C. difficile GAI-0747. In words: Minimum inhibitory concentration against C. difficile GAI-0747. The assay is classed as cell-based, Clostridium difficile. Conditions: Clostridioides difficile, GAI0747.
Assay [1] deals with gram-positive and gram-negative bacteria, obligate anaerobes, strains resistant to penicillins and cepharosporins. The conditions noted are these: bacteria resistant to penicillin and cepharosporin antibiotics; background art; cited from earlier work.
Setting [2] is: Serratia marcescens, Ser. marcescens 10104, read-out: Minimum Inhibitory Concentration (MIC).

Values after ≈ are worked out from the molar mass of the structure shown. Read-outs that look alike come from different tables or passages of the source.

With `C[C@@H](O)[C@H]1C(=O)N2C(C(=O)O)=C(SC3Cc4cncn4C3)[C@H](C)[C@H]12` (single isomer, unassigned) [Compound 1], the MIC was less than 0.1 µg/mL against E. coli NIHJ; less than 0.1 µg/mL in the assay with Ent. cloacae 03400; less than 0.1 µg/mL in the assay on Ser. marcescens 10104 (setting [2]); 6.25 µg/mL (≈ 17.9 µM) in the assay on Ps. aeruginosa 32233; less than 0.1 µg/mL in the assay with S. aureus 209P; 3.13 µg/mL (≈ 8.96 µM) with C. difficile GAI-0747.

`C[C@@H](O)[C@H]1C(=O)N2C(C(=O)O)=C(SC3Cc4nccn4C3)[C@H](C)[C@H]12` (single isomer, unassigned) [Compound 2]: the MIC is less than 0.1 µg/mL with E. coli NIHJ; less than 0.1 µg/mL against Ent. cloacae 03400; less than 0.1 µg/mL with Ser. marcescens 10104 (setting [2]); 6.25 µg/mL (≈ 17.9 µM) in the assay on Ps. aeruginosa 32233; less than 0.1 µg/mL against S. aureus 209P; 1.56 µg/mL (≈ 4.46 µM) with C. difficile GAI-0747.

As to `C[C@@H](O)[C@H]1C(=O)N2C(C(=O)O)=C(SCCN=CN)C[C@H]12` [MK-0787, reference compound], the MIC is 0.2 µg/mL (≈ 0.668 µM) against E. coli NIHJ; 0.78 µg/mL (≈ 2.61 µM) in the assay on Ent. cloacae 03400; 1.56 µg/mL (≈ 5.21 µM) with Ser. marcescens 10104 (Serratia marcescens, 10104, read-out: Minimum Inhibitory Concentration (MIC)); 1.56 µg/mL (≈ 5.21 µM) with Ps. aeruginosa 32233; less than 0.1 µg/mL in the assay with S. aureus 209P; 50 µg/mL (≈ 167 µM) in the assay on C. difficile GAI-0747.

As to `C[C@@H](O)[C@H]1C(=O)N2C(C(=O)O)=C(SCCN)C[C@H]12` [Thienamycin], the antibacterial activity entry in assay [1] was “effective even against bacteria resistant to penicillin and cepharosporin antibiotics”.
